pIC50: −log10 of the molar value. Entries after “also recorded” stand apart in the source; their conditions may differ.
How the values were obtained:
PBzR = molecular target: T1, PBzR (Homo sapiens, UniProt P30536); assay: displacement of [3H]PK-11195 binding to the S11 PBzR overexpressing clone; conditions: read-out: IC50, displacement of [3H]PK-11195; 6 μg S11 protein per data point
T1 construct: expressed in transfected cells; host or cells: S11, clonal SH-SY5Y-derived stably transfected PBzR-overexpressing line
T1 sequence (P30536 whole entry): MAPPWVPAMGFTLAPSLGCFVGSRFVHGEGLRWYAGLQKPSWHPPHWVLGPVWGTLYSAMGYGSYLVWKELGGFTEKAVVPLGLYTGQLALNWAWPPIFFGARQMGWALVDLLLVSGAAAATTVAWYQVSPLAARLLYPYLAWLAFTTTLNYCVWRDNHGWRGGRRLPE
Procedure: Additional experiments were performed to further characterize the binding of ligand to PBzR.
The S11 cell line was used as a source of PBzR.

IPBR-1 cells = assay: PBzR ligand effect on doxorubicin induced caspase activation in IPBR-1 cells; format: cell-based; conditions: induced but not uninduced IPBR-1 cells, dose-dependent
Text: Accordingly, the present invention provides the unexpected finding that peripheral benzodiazepine ligands may be distinguished on the basis of whether they preferentially alter apoptosis, and whether they preferentially alter a mitochondrial function. Data also indicate that benzodiazepine-related PBR ligands can act as effective anti-apoptotic agents, which may be of benefit in the treatment of certain neuropathologies and/or in chronic inflammatory conditions.

[1] = test system: inducible PBzR overexpressing SH-SY5Y-derived cells (IPBR-1); assay: apoptogen-driven caspase activation in tetracycline-inducible PBzR overexpressing SH-SY5Y-derived cells; format: cell-based
Procedure: (§1) Caspases are apoptosis-activated proteases, and caspase induction in cells is often indicative that the cells are undergoing programmed cell death (apoptosis). Apoptosis can be induced by a variety of compounds, including etoposide. S11 or vector control cells were plated at 30,000 cells/well in 96 well plates and grown for 20 hours. […] At this time, media was aspirated and caspase activity was measured by addition of 23 uM DEVD, a peptide that is fluorescent when cleaved by caspase 3, in PBS along with 0.03% digitonin. Fluorescence was measured in an Fmax™ 96-well plate reader (Molecular Devices, Sunnyvale, Calif.) using a kinetic assay. Total number of cells was determined using propidium iodide staining and used to normalize for total number of cells in each well.
The effect of tetracycline induced PBzR overexpression on apoptogen-driven (C2-ceramide, 80 μM, 8 hrs) caspase activation was examined in a selected, oligoclonal tetracycline-inducible PBzR overexpressing SH-SY5Y-derived cell line (FIG. 20). […] The caspase response also correlated with cell viability determinations (FIG. 22), consistent with presumed caspase roles in apoptotic cascades. […] Western blot analysis of IPBR-1 mitochondrial fractions isolated on metrizamide gradients and normalized on the basis of mitochondrial ETC Complex IV activity (as described above) confirmed a dramatic increase in PBzR expression. No discernible change in Bcl-2 expression levels, however, accompanied the induction of PBzR overexpression.

[2] = molecular target: T2, peripheral benzodiazepine receptor (PBR, PBzR) (Homo sapiens, UniProt P30536); assay: [3H]PK-11195 saturation binding to cell membranes
T2 construct: expressed in transfected cells; membranes
T2 sequence (P30536 whole entry): as above

[3] = PK-11195 induced cell death, propidium iodide staining, vector control cells; format: cell-based; conditions: human, vector control cells (low Bcl-2 expression), read-out: percent of non-viable cells
Procedure: (§2) This provides apparent evidence for a functional link between PBR and Bcl-2. […] Cell viability was determined by propidium iodide staining cells and quantifying fluorescence with an Fmax™ plate reader (Molecular Devices, Sunnyvale, Calif.) according to the manufacturer's instructions.

[4] = PK-11195 induced cell death, propidium iodide staining, S11 cells; format: cell-based; conditions: human, read-out: percent of non-viable cells
Procedure: as §2

S11 mitochondria = assay: cytochrome C release upon calcium induced permeability transition; format: cell-based
[5] = test system: S11 cells and vector control cells; assay: caspase activation (DEVD cleavage) in S11 and vector control cells; format: cell-based
Procedure: as §1
Etoposide and ceramide treatments were as described above.

CN1C(=O)CN=C(c2ccc(Cl)cc2)c2cc(Cl)ccc21 [RO 05-4864, 4′chlorodiazepam]
pIC50 (PBzR): 7.43 | effect on doxorubicin induced activation of caspase (IPBR-1 cells): protective effect against the doxorubicin induced activation of caspase

C/C=C(/C)C(=O)O[C@H]1C(C)=C2[C@H]([C@@H]1OC(=O)CCCCCCC)[C@@](C)(OC(C)=O)C[C@H](OC(=O)CCC)[C@@]1(O)[C@H]2OC(=O)[C@@]1(C)O [thapsigargin]
caspase activation, induced versus uninduced cells ([1]; tetracycline-induced IPBR-1): no reduction in caspase activation

Nc1c[n+](N2CCOCC2)no1.[Cl-] [SIN-1, 3-morpholinosydnonimine, HCl]
caspase activation, induced versus uninduced cells ([1]; IPBR-1, 100-400 μM): resistance to caspase activation

CCC(C)N(C)C(=O)c1cc2ccccc2c(-c2ccccc2Cl)n1 (stereo not drawn) [PK-11195, 1-(2-chlorophenyl)-N-methyl-N-(1-methylpropyl)-3-isoquinolinecarboxamide]
Bmax (pmol/mg) ([2]; Jurkat Vector): Not detected | Bmax ([2]; S11): 43 pmol/mg | receptor concentration from saturation binding curves ([2]; S11 SY5Y clone / pooled over-expressors as worded): 25 pmol/mg | Bmax ([2]; SH-SY5Y Vector): 1.8 pmol/mg | binding maximum (BMAX) ([2]; native SY5Y cells): 1.8 pmol/mg | binding maximum (BMAX) ([2]; stable PBR expressing SY5Y cells): 25 ± 1.5 pmol/mg | cytotoxicity at 24 h, 20 µM ([3]; 20 μM): ~10% | cytotoxicity at 24 h, 100 µM ([3]; 100 μM): ~40% | cytotoxicity at 24 h, 100 µM [4]: < 20% | release of cytochrome C from mitochondria (S11 mitochondria): caused a release of cytochrome C

CCCCCCCCCCCCC/C=C/[C@@H](O)[C@H](CO)NC(C)=O [C2-ceramide]
caspase activation, S11 cells versus vector controls ([5]; concentrations of 80 and 100 μM): much greater activation of caspase in vector control cells than in the S11 cells | caspase activation, induced versus uninduced cells ([1]; oligoclonal tetracycline-inducible line, 80 μM, 8 hrs): resistance to ceramide-stimulated caspase activation

COc1cccc2c1C(=O)c1c(O)c3c(c(O)c1C2=O)C[C@@](O)(C(=O)CO)C[C@@H]3O[C@H]1C[C@H](N)[C@H](O)[C@H](C)O1 [doxorubicin]
caspase activation, induced versus uninduced cells ([1]; IPBR-1, 4 μM, 8 hrs): moderated the degree of caspase activation

COc1cc([C@@H]2c3cc4c(cc3[C@@H](O[C@@H]3O[C@@H]5CO[C@@H](C)O[C@H]5[C@H](O)[C@H]3O)[C@H]3COC(=O)[C@H]23)OCO4)cc(OC)c1O [etoposide]
caspase activation, S11 cells versus vector controls ([5]; etoposide 2-6 μM, six hours): caspase activation occurred at a higher rate in S11 cells than in vector controls; also recorded: greater activation of caspase in S11 cells than in vector controls
